{
  "source": "patent US20130059783A1",
  "about": "“COMPOSITIONS AND METHODS FOR EXPANDING BFU-E CELLS” (priority 2010, published 2013)",
  "key": {"[1]": {"test_system": "BFU-E cells", "test": "Colony forming assays of sorted BFU-E fractions (Table S2)", "format": "cell-based, mouse", "text": "Separation of BFU-E and CFU-E cells by expression of CD71, CD24a or both CD71 and CD24a. C-kit positive BFU-E and CFU-E cells were sorted from FLEP cells based on expression of CD71, CD24a or both CD71 and CD24a. In all experiments the BFU-E fraction was the subset of c-kit^positive FLEP cells with the 10% lowest expression of CD71 and/or CD24a, while the CFU-E fraction was the subset with 20% highest expression of CD71 and/or CD24a. Sorted BFU-E and CFU-E populations were subjected to colony forming assays under two different conditions. […] The number of CFU-E colonies (±standard deviation) is shown. The sorted “BFU-E” populations mostly formed small CFU-E clusters rather than single CFU-E colonies in these assays. These CFU-E clusters are formed by precursors to CFU-Es and were scored separately as multi-CFU-Es. The number of “multi-CFU-Es” is not shown since these cells likely represent the same cells as those forming small BFU-E colonies.\nThe potential of the sorted cells to form large BFU-E, small BFU-E, CFU-G/M/Mk, and CFU-GEMM colonies (±standard deviation) was determined by a second assay in methyl cellulose containing 10U Epo, 20 nM IL-3, 20 nM IL-6 and 50 nM SCF per mL, and was scored at day 8-9. […] To determine the effect of DMOG, colony assays of sorted BFU-E (CD71 and CD24a^10% low) cells were also performed in the presence of 333 μM DMOG. In agreement with the finding that DMOG enhances BFU-E self-renewal BFU-E colonies were larger with a more immature appearance in the presence of DMOG and Dex. Therefore, in the presence of DMOG and Dex most BFU-E colonies were scored as “large BFU-Es.”\nNo GEMM colonies were formed (Table S2).\nColonies were scored after 3 days. […] The number of hemoglobinized early BFU-E and late BFU-E colonies was determined after 8-9 days following staining with 2,7-Diaminofluorene (Sigma Chemical, St. Louis, Mo.)."}, "[2]": {"test_system": "BFU-E cells", "test": "Single BFU-E cell culture in SFELE medium", "format": "cell-based, mouse", "experimental": "FIGS. 1A-1F. Glucocorticoids stimulate stress erythropoiesis by enhancing erythroblast output predominantly from BFU-E progenitors. […] Error bars show one standard deviation. […] Error bars show one standard deviation. […] Shown is the fraction of c-kit+ cells after 72 hours. […] Cell numbers in each clone were estimated under the microscope on Day 8. 80% of sorted BFU-E cells form more than 100 daughter cells in erythroid expansion culture.\nThe “BFU-E” cell population that contains the GC-responsive cells, while highly enriched for BFU-Es, is a heterogeneous mix of erythroid progenitors. In order to determine the effect of GCs at the single cell level, we performed single “BFU-E” cell culture experiments (FIG. 1E)."}, "[3]": {"conditions": "CD24a 10% low cells, 100 nM Dex"}, "[4]": {"conditions": "CD71/CD24a 10% low cells, 100 nM Dex and/or 333 μM DMOG"}, "[5]": {"conditions": "purified CD71 10% low cells, with Dex"}},
  "data": [
    {"smiles": "C[C@@H]1C[C@H]2[C@@H]3CCC4=CC(=O)C=C[C@]4(C)[C@@]3(F)[C@@H](O)C[C@]2(C)[C@@]1(O)C(=O)CO", "note": "[Dex, dexamethasone]", "values": [
      {"measurement": "CFU-E colonies", "setting": "[1]; [3]", "value": "96 (±23) colonies per 1000 plated cells"},
      {"measurement": "CFU-G/M/Meg colonies", "setting": "[1]; [3]", "value": "19 (±6) colonies per 1000 plated cells"},
      {"measurement": "GEMM colonies", "setting": "[1]; [3]", "value": "0.8 (±2) colonies per 1000 plated cells"},
      {"measurement": "large BFU-E colonies", "setting": "[1]; [3]", "value": "178 (±28) colonies per 1000 plated cells"},
      {"measurement": "small BFU-E colonies", "setting": "[1]; [3]", "value": "336 (±27) colonies per 1000 plated cells"},
      {"measurement": "CFU-E colonies", "setting": "[1]; CD71 10% low cells, 100 nM Dex", "value": "66 (±28) colonies per 1000 plated cells"},
      {"measurement": "CFU-G/M/Meg colonies", "setting": "[1]; CD71 10% low cells, 100 nM Dex", "value": "20 (±21) colonies per 1000 plated cells"},
      {"measurement": "GEMM colonies", "setting": "[1]; CD71 10% low cells, 100 nM Dex", "value": "0 colonies per 1000 plated cells"},
      {"measurement": "large BFU-E colonies", "setting": "[1]; CD71 10% low cells, 100 nM Dex", "value": "222 (±84) colonies per 1000 plated cells"},
      {"measurement": "small BFU-E colonies", "setting": "[1]; CD71 10% low cells, 100 nM Dex", "value": "289 (±85) colonies per 1000 plated cells"},
      {"measurement": "CFU-E colonies", "setting": "[1]; [4]", "value": "33 (±10) colonies per 1000 plated cells"},
      {"measurement": "CFU-G/M/Meg colonies", "setting": "[1]; [4]", "value": "7 (±2) colonies per 1000 plated cells"},
      {"measurement": "GEMM colonies", "setting": "[1]; [4]", "value": "0 colonies per 1000 plated cells"},
      {"measurement": "large BFU-E colonies", "setting": "[1]; [4]", "value": "412 (±23) colonies per 1000 plated cells"},
      {"measurement": "small BFU-E colonies", "setting": "[1]; [4]", "value": "251 (±40) colonies per 1000 plated cells"},
      {"measurement": "Cells forming CFU-E colonies", "setting": "[1]; [5]", "value": 6.6, "unit": "%"},
      {"measurement": "Cells forming CFU-G/M/Meg colonies", "setting": "[1]; [5]", "value": 2.0, "unit": "%"},
      {"measurement": "Cells forming early BFU-Es", "setting": "[1]; [5]", "value": 22, "unit": "%"},
      {"measurement": "Cells forming late BFU-E colonies", "setting": "[1]; [5]", "value": 29, "unit": "%"},
      {"measurement": "Erythroblasts generated by individual BFU-E cells", "setting": "[2]; day 8, 100 nM Dex", "value": "more than 300,000 erythroblasts"},
      {"measurement": "Cell divisions performed by some BFU-E cells", "setting": "[2]; in 8 days, 100 nM Dex", "value": "more than 18 cell divisions"},
      {"measurement": "Additional cell divisions allowed", "setting": "[2]; single cell level, 100 nM Dex versus without Dex", "value": "more than 6 cell divisions"}
    ]}
  ]
}
